Assay results published in ChEMBL document CHEMBL4177643, “Trisubstituted purine inhibitors of PDGFRα and their antileukemic activity in the human eosinophilic cell line EOL-1” (Bioorg Med Chem, 2017).

Assays:
[1] = target: Platelet-derived growth factor receptor alpha (Homo sapiens, UniProt P16234); experiment: Inhibition of recombinant human N-terminal GST-His6 tagged PDGFRalpha (Q551 to L1089 residues) expressed in Sf9 insect cells using poly(Ala,Glu,Lys,Tyr)6:2:5:1 hydrobromide as substrate in presence of [gamma-33P]ATP
Chain of Platelet-derived growth factor receptor alpha (P16234 whole entry, the tested form may be a part): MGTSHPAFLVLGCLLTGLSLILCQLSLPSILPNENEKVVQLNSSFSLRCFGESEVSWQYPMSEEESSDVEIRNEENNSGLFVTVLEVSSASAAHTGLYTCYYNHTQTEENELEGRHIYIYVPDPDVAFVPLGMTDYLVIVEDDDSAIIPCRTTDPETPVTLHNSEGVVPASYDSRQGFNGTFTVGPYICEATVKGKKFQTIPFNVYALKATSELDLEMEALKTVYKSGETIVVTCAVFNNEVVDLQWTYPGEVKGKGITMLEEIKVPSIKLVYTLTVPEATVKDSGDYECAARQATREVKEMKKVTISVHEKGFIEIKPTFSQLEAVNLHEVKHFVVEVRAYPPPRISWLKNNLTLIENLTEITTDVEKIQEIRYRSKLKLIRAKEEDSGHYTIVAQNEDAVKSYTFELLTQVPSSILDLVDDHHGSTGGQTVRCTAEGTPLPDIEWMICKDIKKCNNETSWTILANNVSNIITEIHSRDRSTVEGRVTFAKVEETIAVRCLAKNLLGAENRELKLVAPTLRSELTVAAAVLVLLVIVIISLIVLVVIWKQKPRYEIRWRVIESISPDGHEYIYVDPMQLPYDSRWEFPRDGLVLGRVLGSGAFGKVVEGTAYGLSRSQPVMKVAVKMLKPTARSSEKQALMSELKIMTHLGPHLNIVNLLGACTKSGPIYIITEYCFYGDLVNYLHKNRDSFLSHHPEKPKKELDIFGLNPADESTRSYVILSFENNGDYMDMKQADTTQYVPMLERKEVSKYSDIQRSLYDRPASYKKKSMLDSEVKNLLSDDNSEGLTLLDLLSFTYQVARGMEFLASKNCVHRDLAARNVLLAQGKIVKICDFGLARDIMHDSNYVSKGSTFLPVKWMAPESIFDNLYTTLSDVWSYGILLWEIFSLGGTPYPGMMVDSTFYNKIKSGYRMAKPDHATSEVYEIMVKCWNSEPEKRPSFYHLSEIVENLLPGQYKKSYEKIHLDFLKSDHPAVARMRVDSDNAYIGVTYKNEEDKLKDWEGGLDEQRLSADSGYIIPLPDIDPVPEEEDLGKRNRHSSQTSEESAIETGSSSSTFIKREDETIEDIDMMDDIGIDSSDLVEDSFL

HCC827 [2] = experiment: Cytotoxicity against human HCC827 cells assessed as growth inhibition after 72 hrs by calcein-AM dye based fluorescence assay; type: functional; conditions: HCC827, 72 h
MCF7 = experiment: Cytotoxicity against human MCF7 cells assessed as growth inhibition after 72 hrs by calcein-AM dye based fluorescence assay; type: functional; conditions: MCF7, 72 h
HCC827 [3] = experiment: Cell cycle arrest in human HCC827 cells assessed as G1/G2-M ratio at GI50 concentration after 24 hrs by propidium iodide staining-based flow cytometry relative to control; type: functional
BT-474 = experiment: Cytotoxicity against human BT474 cells assessed as growth inhibition after 72 hrs by calcein-AM dye based fluorescence assay; type: functional; conditions: BT-474, 72 h
[4] = target: Cyclin-dependent kinase 2/cyclin E1 (Homo sapiens, UniProt P24941); experiment: Inhibition of CDK2/cyclin E (unknown origin) expressed in baculovirus infected insect Sf9 cells using histone H1 as substrate in presence of [gamma-33P]ATP
K562 [5] = experiment: Cell cycle arrest in human K562 cells assessed as G1/G2-M ratio at GI50 concentration after 24 hrs by propidium iodide staining-based flow cytometry relative to control; type: functional
EOL1 [6] = experiment: Cell cycle arrest in human EOL-1 cells assessed as G1/G2-M ratio at GI50 concentration after 24 hrs by propidium iodide staining-based flow cytometry relative to control; type: functional
K562 [7] = experiment: Cytotoxicity against human K562 cells assessed as growth inhibition after 72 hrs by calcein-AM dye based fluorescence assay; type: functional; conditions: K562, 72 h
EOL1 [8] = experiment: Cytotoxicity against human EOL-1 cells assessed as growth inhibition after 72 hrs by calcein-AM dye based fluorescence assay; type: functional; conditions: EOL1, 72 h

SMILES	IC50 [1] [µM]	GI50 (HCC827 [2]) [µM]	GI50 (MCF7) [µM]	Ratio (HCC827 [3])	GI50 (BT-474) [µM]	IC50 [4] [µM]	Ratio (K562 [5])	Ratio (EOL1 [6])	GI50 (K562 [7]) [µM]	GI50 (EOL1 [8]) [µM]
CCCCn1cnc2c(Nc3cc(OC)cc(OC)c3)nc(N[C@H]3CC[C@H](N)CC3)nc21	1.5	20.1	4.5	1.35	15.6	0.442	0.82	1.3	2.4	0.37
N[C@H]1CC[C@H](Nc2nc(Nc3ccc(Cl)cc3)c3ncn(C4CCCCC4)c3n2)CC1	1.09	9.1	2.3	2.68	4.1	0.965	0.79	2.64	1.7	0.14
CC(C)CCn1cnc2c(Nc3ccc(O)cc3)nc(N[C@H]3CC[C@H](N)CC3)nc21	0.15	14.4	3.1	2.71	7.7	0.49	0.73	1.17	4.6	0.03
CCCCCCn1cnc2c(Nc3ccc(O)cc3)nc(N[C@H]3CC[C@H](N)CC3)nc21	0.452	24.7	3.5	0.44	7.7	0.485	0.69	2.5	5.4	0.19
CCCCCCn1cnc2c(Nc3cc(OC)cc(OC)c3)nc(N[C@H]3CC[C@H](N)CC3)nc21	1.41	9.1	3.5	9.67	3.7	0.68	1.4	3.78	1.9	0.38
CC(C)CCn1cnc2c(Nc3ccccc3)nc(N[C@H]3CC[C@H](N)CC3)nc21	0.096	21.7	5.4	0.39	6.4	0.627	1.2	1.67	3.5	0.01
CCCCCCn1cnc2c(Nc3cccc(Cl)c3)nc(N[C@H]3CC[C@H](N)CC3)nc21	0.195	10.2	2.7	7.37	5.1	0.5	0.79	1.86	2.3	0.31
CCCCn1cnc2c(Nc3ccccc3)nc(N[C@H]3CC[C@H](N)CC3)nc21	0.16	9	2.2	0.33	4.9	0.134	2.29	4.93	3.2	0.02
COc1cc(Nc2nc(N[C@H]3CC[C@H](N)CC3)nc3c2ncn3CCC(C)C)cc(OC)c1	0.29	11.2	4.5	1.47	5.9	0.98	1.6	3.71	2.5	0.14
CC(C)CCn1cnc2c(NCc3cccc(Cl)c3)nc(N[C@H]3CC[C@H](N)CC3)nc21	> 20	16.7	4.7	2.5	6.6	0.306	1.85	1.77	3.1	1.33
N[C@H]1CC[C@H](Nc2nc(Nc3cccc(Cl)c3)c3ncn(Cc4ccccc4)c3n2)CC1	5.1	13.7	3.6	10.37	10.2	2.83	1.76	0.99	3	0.38
N[C@H]1CC[C@H](Nc2nc(Nc3ccc(O)cc3)c3ncn(C4CCCCC4)c3n2)CC1	1.23	32.5	9.6	9.61	27.3	1.44	0.95	2.44	8.9	0.22
CC(C)CCn1cnc2c(Nc3ccc(Cl)cc3)nc(N[C@H]3CC[C@H](N)CC3)nc21	0.059	10.2	2.7	3.5	5.1	0.319	0.81	7.8	1.8	0.09
CCCCn1cnc2c(Nc3cccc(Cl)c3)nc(N[C@H]3CC[C@H](N)CC3)nc21	0.154	7.2	2	0.54	5.1	0.132	0.78	10.75	2	0.16
CC(C)CCn1cnc2c(Nc3cccc(O)c3)nc(N[C@H]3CC[C@H](N)CC3)nc21	0.066	21.3	12.6	5.6	14.7	0.513	1.22	8.94	7.6	0.06
COc1ccc(Cn2cnc3c(Nc4cccc(Cl)c4)nc(N[C@H]4CC[C@H](N)CC4)nc32)cc1	7.66	18.7	4.8	1.94	8.2	5.5	1.43	0.96	2.8	0.53
CS(=O)(=O)CCNCc1ccc(-c2ccc3ncnc(Nc4ccc(OCc5cccc(F)c5)c(Cl)c4)c3c2)o1 [LAPATINIB]	–	22.3	8.1	–	0.2	–	–	–	5.7	0.41
COc1ccc(Nc2nc(N[C@H]3CC[C@H](N)CC3)nc3c2ncn3CCC(C)C)c(OC)c1	3.2	32.9	6.3	23.09	7.9	5.97	1	1.65	5.5	0.63
CCCCCCn1cnc2c(Nc3ccc(Cl)cc3)nc(N[C@H]3CC[C@H](N)CC3)nc21	0.156	11.7	4.2	5.2	5.5	0.433	0.88	4.61	2.1	0.44
